{"source": "patent US20040127405A1", "about": "“Methods for treating lung infections and lung tumors and for treating and preventing lung metastases” (priority 2000, published 2004)", "key": {"lungs of rats": {"tested_on": "lungs of rats", "assay": "Leukocyte counts in bronchoalveolar lavage (BAL) after intratracheal instillation in rats", "type": "in vivo, rat", "experimental": "In the majority of experiments, the biologically active, chemically synthesized 2-R-MALP-2 stereoisomer, corresponding to the natural compound, was used for intracheal administration. […] Both compounds were synthesized and purified as described in Example 1, and kept as 1 mg/ml stock solutions in a 33 vol. % 2-propanol, 67 vol. % water mixture. Stock solutions were diluted with pyrogen-free 0.9 wt. % sodium chloride solutions (Braun, Melsungen, Germany) shortly before application. Solvent controls consisted of corresponding mixtures without MALP-2.\nIntratracheal administration of the compounds was performed under short ether anesthesia. During this process, rats were suspended in a hanging position by a rubber band fixed to the rats' upper jaw teeth. After intubation of the trachea via the oral cavity, a total volume of 500 μl was administered. Before administration, the correct position of the tube was checked by blowing air into the lung.\nThe animals' lungs were lavaged 10 times with 5 ml of cold 0.9 wt. % NaCl solutions via a tracheal cannula. The lavage fluid was pooled, and an average of >90% of the volume was recovered. The bronchoalveolar (BAL) cells were processed for blood leukocytes as described herein.\nThe total cell numbers in the lung compartments (BAL, marginal pool, and interstitium) and in the blood were determined in a Neubauer counting chamber. Differential cell counts were assessed on cytospins. The slides were fixed in acetone for 10 min and washed with Tris-buffered saline containing 0.1 wt. % Tween 20. Cells were stained with a monoclonal antibody cocktail against lymphocytes (R73 for T cells, O×12 for B cells, and 3.2.3 for natural killer cells [all cells available from Serotec, Oxford, United Kingdom]). At least 400 cells were differentiated on each slide. In addition, neutrophils and macrophages were morphologically identified by May-Grünwald and/or Giemsa staining.\nFor flow cytometry, cells were transferred into microtiter plates (10^6 cells/well) and washed twice in PBS containing 1% BSA and 0.1% NaN3. The staining was performed with the appropriate primary antibodies described below. After the cells were washed twice, the secondary antibody was incubated for 30 min at 4° C. The cells were analyzed by using a FACScan flow cytometer (Becton Dickinson, Mountain View, Calif.), focusing on the lymphocyte cluster. CD8^+ T cells were identified as R73^+ O×8^+; CD4^+ T cells were identified as R73^+ O×8^−; memory CD4^+ T cells were identified as O×22^− W3/25^high; naive T cells were identified as O×22^+ W3/25^high; and monocytes were identified as O×22^− W3/25^low. Dendritic cells were identified as low-autofluorescence cells, non-T and non-B lymphocytes, and double positive for O×6 and O×62 (Lambrecht et al., 1999. Am. J. Respir. Cell. Mol. Biol. 20:1165-1174). All primary antibodies were monoclonal mouse anti-rat (Serotec). Unconjugated antibodies were detected by using phycoerythrin-conjugated secondary antibody (KPE; Dianova, Hamburg, Germany) and biotinylated primary antibodies with Red 670-streptavidin (Gibco, Gaithersburg, Md.). Isotype-matched antibodies served as a control.\nTo investigate whether the lipopeptide MALP-2 would be able to exert effects in the lungs, 2.5 μg of the natural stereoisomer 2R-MALP-2 was instilled into the lungs of anesthetized rats. […] Taken together, only the natural 2R stereoisomer of MALP-2 specifically affected the cell counts and distribution of subsets in the BAL.\nWith respect to FIG. 2, the data are means±the standard error of the mean (SEM; n=six per group).\nWith respect to FIG. 3, rats were sacrificed at the indicated time points after instillation of 2.5 μg of 2R-MAPL-2, and leukocytes in the bronchoalveolar lavage (BAL) were determined as described. The data are means±the SEM (n=5 per group).\nWith respect to FIG. 4, data are means±the SEM (n=8 per group). […]"}, "[1]": {"tested_on": "lymphatic tissue in the bronchial mucosa", "assay": "Lymphatic tissue in the bronchial mucosa after repeated inhalation in rats", "type": "in vivo, rat", "details": "inhalation by mask, 30 μg doses on six occasions at one-week intervals", "method": "They were maintained under specific-pathogen-free conditions until administration of compounds in accordance with the invention.\nWith the aid of a mask, rats were made to inhale 30 μg doses of MALP-2 on six occasions at one-week intervals."}, "[2]": {"details": "intraperitoneal injection of a few μg; cited from earlier work"}, "MADB106 tumor cells": {"tested_on": "MADB106 tumor cells", "assay": "Lung metastasis after intravenous MADB106 tumor cell inoculation in F344 rats", "details": "intratracheal"}, "[3]": {"details": "3 μg instilled into the trachea"}, "[4]": {"details": "2.5 μg intratracheal, three days, P<0.01, FIG. 2"}, "[5]": {"details": "three days after application, FIG. 4"}}, "note": "Like-named read-outs stand apart in the source and are kept apart here. Ends that are not written are not given here. * marks the point of attachment. S‑(2,3-bisacyloxypropyl) = S-(2,3-bisacyloxypropyl) group on the cysteine sulfur (lipopeptide), acyl preferably palmitoyl; X1 = S‑(2,3-bispalmitoyloxy-(2R)-propyl)Cys, CCCCCCCCCCCCCCCC(=O)OC[C@H](CSC[C@H](N)C(=O)*)OC(=O)CCCCCCCCCCCCCCC", "data": [{"substance": "MALP-2: macrophage-activating lipopeptide MALP-2 (an S-(2,3-bisacyloxypropyl)-cysteine peptide) isolated from Mycoplasma fermentans; stereochemistry not stated where tested (C(S‑(2,3-bisacyloxypropyl))GNNDESNISFKEK; not fully specified; also: acyl groups not given here, alternative: 2,3-diacylglyceryl-serinyl)", "values": [{"measurement": "number of leukocytes in the respiratory tracts and the alveolar space (BAL)", "setting": "lungs of rats; 3 μg instilled into the trachea, after a few hours, lasts for a few days, FIG. 1", "result": "increase in the number of leukocytes"}, {"measurement": "lymphatic tissue in the bronchial mucosa", "setting": "[1]", "result": "increase in the lymphatic tissue"}, {"measurement": "adverse effect on the animals", "setting": "[3]", "result": "not detectable"}, {"measurement": "food consumption, bodyweight, activity and behavior", "setting": "[3]", "result": "not noteworthy"}, {"measurement": "food consumption, bodyweight, activity and behavior", "setting": "inhalation, 30 μg doses on six occasions at one-week intervals", "result": "clinically not noteworthy"}, {"measurement": "leukocyte infiltration", "setting": "[2]", "result": "brought about leukocyte infiltration"}, {"measurement": "effects on lung colonization of tumor cells", "setting": "MADB106 tumor cells; one day after tumor cell injection, FIG. 5B", "result": "no effects"}, {"measurement": "reduction of lung metastasis compared with sham-injected animals", "setting": "MADB106 tumor cells; simultaneously with tumor cell inoculation, counted 3 wk after inoculation, P=0.0006, FIG. 5A", "result": 44, "unit": "%"}, {"measurement": "effects on lung colonization of tumor cells", "setting": "MADB106 tumor cells; three days after tumor cell injection, FIG. 5C", "result": "no effects"}]}, {"substance": "S-[2,3-bispalmitoyloxy-(2R)-propyl]cysteinyl-GNNDESNISFKEK (X1-GNNDESNISFKEK) [2R-MALP-2]", "values": [{"measurement": "time of maximal lymphocyte accumulation in the BAL", "setting": "lungs of rats; 2.5 μg intratracheal", "result": 72, "unit": "h"}, {"measurement": "lymphocyte numbers in the BAL", "setting": "lungs of rats; 2.5 μg intratracheal, 24 h (0 h: [0.04±0.01]×10^6), mean±SEM", "result": "0.6±0.1 ×10^6"}, {"measurement": "lymphocyte numbers in the BAL", "setting": "lungs of rats; 2.5 μg intratracheal, 48 h, mean±SEM", "result": "0.9±0.1 ×10^6"}, {"measurement": "lymphocyte numbers in the BAL (maximal accumulation)", "setting": "lungs of rats; 2.5 μg intratracheal, 72 h after instillation, mean±SEM", "result": "1.2±0.1 ×10^6"}, {"measurement": "all investigated cell types in the BAL", "setting": "lungs of rats; 2.5 μg intratracheal, after 10 days", "result": "returned to control levels"}, {"measurement": "increase of total cell number in the BAL", "setting": "lungs of rats; 2.5 μg intratracheal, six hours after treatment, FIG. 3", "result": "about 10 -fold"}, {"measurement": "total cell number in the BAL", "setting": "lungs of rats; 2.5 μg intratracheal, three days after application, vs vehicle control, FIG. 2", "result": "clearly increased"}, {"measurement": "alveolar macrophages (AM) in the BAL", "setting": "lungs of rats; [4]", "result": "significant increase"}, {"measurement": "lymphocytes in the BAL", "setting": "lungs of rats; [4]", "result": "significant increase"}, {"measurement": "neutrophils in the BAL", "setting": "lungs of rats; [4]", "result": "significant increase"}, {"measurement": "time of maximal cell count in the BAL", "setting": "lungs of rats; 2.5 μg intratracheal, FIG. 3", "result": 24, "unit": "h"}, {"measurement": "increase in B cells and monocytes in the BAL", "setting": "lungs of rats; [5]", "result": "lower, but still significant"}, {"measurement": "increase in T lymphocytes, NK cells and dendritic cells in the BAL", "setting": "lungs of rats; [5]", "result": "highest relative increase"}, {"measurement": "increase of leukocyte subpopulations in the BAL (flow cytometry)", "setting": "lungs of rats; three days after application, P<0.01 vs control vehicle, FIG. 4", "result": "significant"}]}]}
